SMILES strings stand for the structures.

T1 sequence (Q96P20 whole entry): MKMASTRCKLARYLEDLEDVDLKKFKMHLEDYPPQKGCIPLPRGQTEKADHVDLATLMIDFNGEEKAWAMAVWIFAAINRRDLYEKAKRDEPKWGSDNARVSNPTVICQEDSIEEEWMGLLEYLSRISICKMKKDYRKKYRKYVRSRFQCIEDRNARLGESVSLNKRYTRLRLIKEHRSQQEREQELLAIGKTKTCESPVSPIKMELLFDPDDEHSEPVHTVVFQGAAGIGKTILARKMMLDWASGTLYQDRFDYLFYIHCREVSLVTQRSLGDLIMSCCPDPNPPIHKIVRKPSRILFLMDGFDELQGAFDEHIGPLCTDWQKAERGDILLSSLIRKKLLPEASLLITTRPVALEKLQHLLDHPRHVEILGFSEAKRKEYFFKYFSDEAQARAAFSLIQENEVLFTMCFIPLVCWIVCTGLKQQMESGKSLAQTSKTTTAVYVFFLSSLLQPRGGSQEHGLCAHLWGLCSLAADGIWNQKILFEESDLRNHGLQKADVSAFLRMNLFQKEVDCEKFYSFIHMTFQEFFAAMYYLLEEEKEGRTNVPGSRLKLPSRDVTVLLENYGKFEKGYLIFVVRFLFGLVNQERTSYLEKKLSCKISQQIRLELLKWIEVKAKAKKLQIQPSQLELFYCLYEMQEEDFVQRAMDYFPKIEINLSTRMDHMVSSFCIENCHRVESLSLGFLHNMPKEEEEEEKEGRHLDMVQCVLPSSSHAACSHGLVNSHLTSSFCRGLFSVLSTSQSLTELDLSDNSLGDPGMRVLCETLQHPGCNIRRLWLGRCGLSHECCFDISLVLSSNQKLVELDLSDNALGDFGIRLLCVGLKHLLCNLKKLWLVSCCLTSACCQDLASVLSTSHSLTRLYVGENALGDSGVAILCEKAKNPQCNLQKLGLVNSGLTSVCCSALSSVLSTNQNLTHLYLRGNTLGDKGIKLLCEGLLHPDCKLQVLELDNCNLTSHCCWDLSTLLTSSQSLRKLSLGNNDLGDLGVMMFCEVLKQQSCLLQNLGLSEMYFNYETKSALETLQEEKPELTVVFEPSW

This assay concerns the target T1, NLRP3 inflammasome (Homo sapiens, UniProt Q96P20).
T1 construct: Monocytes were then isolated from the PBMCs using a human pan-monocyte isolation kit; endogenous in cells; host or cells: primary human monocytes isolated from PBMCs of human blood
Kind of assay: Inhibitory activity against NLRP3 inflammasome in human monocytes (IL-1b ELISA). The settings on record: human monocytes from PBMCs; compound 0.5 h, LPS 100 ng/mL 3.5 h, ATP 5 mM 45 min; IL-1b in supernatant by ELISA; (n = 2) cells are means of n tests; read-out: IL-1β inhibition (EC50)/nM. Format: cell-based. How it is done:
Assays for Inhibitory Activity Against NLRP3 Inflammasome in Human Monocytes
Day 1: PBMCs were separated from human blood by density gradient centrifugation and washed twice with PBS containing 2% FBS (centrifuged at 300 g for 8 min). Monocytes were then isolated from the PBMCs using a human pan-monocyte isolation kit and an LS column. The cells were stained with CD14-FITC at 4° C. for 30 min, and FACS was run on BD FACS Verse to analyze the purity of the pan-monocytes. The cells were counted, and the cell density was adjusted to 2.5×10^5 cells/mL. The cells were seeded into a 96-well plate at 2.5×10^4 monocytes/[…] suspension/well. The plate was incubated overnight at 37° C. in 5% CO2.
Day 2: Test compounds were pre-titrated so that all titration points, including the DMSO control well, contained 0.1% DMSO. […] At the end of the 3.5 hours' incubation, the cells were stimulated (by adding […] of 40 mM ATP (the final concentration would be 5 mM) to treat the cells for 45 min). […] of supernatant was transferred to a new plate and stored at […]
Day 3: The supernatant solution was 20-fold diluted for human monocyte IL-1b ELISA according to the manufacturer's instructions.
Days 3-4: ELISA experiment • 1) Day 3: A capture antibody (diluted with coating buffer) was added to the plate at […]. The plate was sealed and incubated overnight at 4° C. • 2) Day 4: The liquids in the wells were pipetted off, and the plate was washed 3 times with wash buffer, 300 μL/≥each time. After the last wash, the plate was inverted and blotted dry with absorbent paper to remove any residual buffer.
3) A test dilution was added to the plate at ≥200 μL/well. The plate was incubated at room temperature for 1 h. • 4) The plate was blotted dry/washed as in step 2. • 5) Standard and sample dilutions were prepared with the test dilution. • 6) Each standard, sample and control was added to a corresponding well at […]. The plate was sealed and incubated at room temperature for 2 h. • 7) The plate was blotted dry/washed as in step 2, except that it was washed 5 times. • 8) The assay antibody was diluted with the test dilution and added to wells at […]/well. • 9) The plate was sealed and incubated at room temperature for 1 h. • 10) The plate was blotted dry/washed as in step 2, except that it was washed 5 times. • 11) The enzyme reagent was diluted with the test dilution and added to wells at […]/well. The plate was sealed and incubated at room temperature for 30 min. • 12) The plate was blotted dry/washed, and the step of soaking for 30 s-1 min was used. The plate was washed 7 times in total. • 13) A substrate solution was added at […]/well. The plate (without plate sealant) was incubated at room temperature in the dark for 30 min. • 14) A stop solution was added at […]. • 15) The absorbance at 450 nm was read using the instrument Envision within 30 min of stopping the reaction. If a wavelength correction was available, the absorbance at 570 nm would be subtracted from the absorbance at 450 nm.
A general note: In an ELISA, binding on a coated surface is turned into a signal by an enzyme label.
On to `Cc1cc(N[C@@H]2CCCN(C)C2)nnc1-c1ccc(SC(F)(F)F)cc1O` (racemic) [Compound 11, rac-(R2-(4-Methyl-6-((1-methylpiperidin-3-yl)amino)pyridazin-3-yl)-5-( (trifluoromethyl)thio)phenol], for which the EC50 turned out to be 2.47 nM.

For `OCCN1CCC[C@@H](Nc2nnc(-c3ccc(C(F)(F)F)cc3O)c3c2CCCC3)C1` (racemic) [Compound 19, rac-(R)-2-(4-(1-(2-Hydroxyethyl)piperidin-3-yl)amino)-5,6,7,8-tetrahydrophthalazin-1-yl)-5-(trifluoromethyl)phenol], the EC50 stood at 4.99 nM.

Turning to `CN1CCC[C@@H](Nc2nnc(-c3c(O)cccc3F)c3c2CCC3)C1` (racemic) [Compound 20, rac-3-Fluoro-2-(4-((R)-1-methylpiperidin-3-yl)amino)-6,7-dihydro-5H-cyclopenta[d]pyridazin-1-yl)phenol], the EC50 came out at 1.23 nM.

On to `OCCN1CCC[C@@H](Nc2nnc(-c3ccc(C(F)(F)F)cc3O)c3c2COC3)C1` (racemic) [Compound 32, rac-(R)-2-(4-(1-(2-Hydroxyethyl)piperidin-3-yl)amino)-5,7-dihydrofuro[3,4-d]pyridazin-1-yl)-5-(trifluoromethyl)phenol], for which the EC50 worked out at 0.71 nM.

For the molecule `Cc1cc(N[C@@H]2CCCN(CCO)C2)nnc1-c1ccc(C2CC2)cc1O` (racemic) [Compound 36, rac-(R)-5-Cyclopropyl-2-(6-((1-(2-hydroxyethyl)piperidin-3-yl)amino)-4-methylpyridazin-3-yl)phenol], the EC50 came out at 127 nM.

On to `Cc1cc(N[C@@H]2CCCN(C)C2)nnc1-c1ccc2c(c1O)CCC2` [Compound 4, (R)-5-(4-Methyl-6-((1-methylpiperidin-3-yl)amino)pyridazin-3-yl)-2,3-dihydro-1H-inden-4-ol], for which the EC50 was 1.91 nM.

Take `Cc1cc(N[C@@H]2CCCN(C)C2)nnc1-c1cc2ccccc2cc1O` [Compound 5, (R)-3-(4-Methyl-6-((1-methylpiperidin-3-yl)amino)pyridazin-3-yl)naphthalen-2-ol]: the EC50 worked out at 41.8 nM.

Regarding `Cc1cc(N[C@@H]2CCCN(C)C2)nnc1-c1cc2c(cc1O)CCC2` [Compound 6, (R)-6-(4-Methyl-6-((1-methylpiperidin-3-yl)amino)pyridazin-3-yl)-2,3-dihydro-1H-inden-5-ol], the EC50 was 18.7 nM.

As for `Cc1cc(N[C@@H]2CCCN(C)C2)nnc1-c1c(O)ccc2c1CCC2` [Compound 7], the EC50 worked out at 22.6 nM.

With `Cc1cc(N[C@@H]2CCCN(C)C2)nnc1-c1ccc(C(F)(F)F)cc1C(F)F` [Compound 8, (R)-6-(2-(Difluoromethyl)-4-(trifluoromethyl)phenyl)-5-methyl-N-(1-methylpiperidin-3-yl)pyridazin-3-amine], the EC50 worked out at 4.31 nM.

With `Cc1cc(N[C@@H]2CCCN(C)C2)nnc1-c1cc2ccccc2cc1O` [Compound 9, (R)-3-(4-Methyl-6-((1-methylpiperidin-3-yl)amino)pyridazin-3-yl)naphthalen-2-ol], the EC50 stood at 41.8 nM.

With `CN1CCC[C@@H](Nc2ccc(-c3c(O)ccc4ccccc34)nn2)C1` [Compound 10, (R)-1-(6-((1-Methylpiperidin-3-yl)amino)pyridazin-3-yl)naphthalen-2-ol], the EC50 was found to be 48.2 nM.

As to `Cc1cc(N[C@@H]2CCCN(C)C2)nnc1-c1ccncc1O` [Compound 13, (R)-4-(4-Methyl-6-((1-methylpiperidin-3-yl)amino)pyridazin-3-yl)pyridin-3-ol], the EC50 worked out at 129 nM.

In the case of `Cc1cc(N[C@H]2C[C@@](C)(O)C2)nnc1-c1ccc2c(c1O)CCC2` [Compound 14], the EC50 turned out to be 2.38 nM.

Turning to `C[C@]1(O)C[C@@H](Nc2nnc(-c3ccc(C(F)(F)F)cc3O)c3ccccc23)C1` [Compound 15], the EC50 was 4.25 nM.

Regarding `Cc1cc(N[C@@H]2CCCN(C)C2)nnc1-c1c(O)ccc2c1CCC2` [Compound 17], the EC50 came to 14.4 nM.

As to `Cc1c(N[C@H]2C[C@@](C)(O)C2)nnc(-c2ccc3c(c2O)CCC3)c1C` [Compound 21], the EC50 amounted to 4.62 nM.

`C[C@]1(O)C[C@@H](Nc2nnc(-c3ccc(C(F)(F)F)cc3O)c3ncccc23)C1` [Compound 22]: the EC50 turned out to be 35.5 nM.

Take `C[C@]1(O)C[C@@H](Nc2nnc(-c3ccc(C(F)(F)F)cc3O)c3cccnc23)C1` [Compound 23]: the EC50 was found to be 2.51 nM.

`C[C@]1(O)C[C@@H](Nc2nnc(-c3ccc(C(F)(F)F)cc3O)c3ccncc23)C1` [Compound 24]: the EC50 was 0.68 nM.

For the molecule `C[C@]1(O)C[C@@H](Nc2nnc(-c3ccc(C(F)(F)F)cc3O)c3cnccc23)C1` [Compound 25], the EC50 amounted to 12.8 nM.

Take `Cc1cc(N[C@@H]2CCCN(C)C2)nnc1-c1ccc2c(c1O)CCCC2` [Compound 27]: the EC50 is 4.75 nM.

Turning to `Cc1cc(N[C@H]2C[C@@](C)(O)C2)nnc1-c1ccc(C2CC2)cc1O` [Compound 28], the EC50 was determined as 17.4 nM.

In the case of `Cc1c(N[C@H]2C[C@@](C)(O)C2)nnc(-c2ccc(C3CC3)cc2O)c1C` [Compound 29], the EC50 came out at 37.2 nM.

On to `C[C@]1(O)C[C@@H](Nc2nnc(-c3ccc(C4CC4)cc3O)c3ccccc23)C1` [Compound 30], for which the EC50 was determined as 13.4 nM.

For `C[C@]1(O)C[C@@H](Nc2nnc(-c3ccc4c(c3O)CCC4)c3ccccc23)C1` [Compound 31], the EC50 turned out to be 1.08 nM.

In the case of `C[C@]1(O)C[C@@H](Nc2nnc(-c3c(O)cc(C(F)(F)F)cc3F)c3ccncc23)C1` [Compound 33], the EC50 was found to be 22 nM.

As for `C[C@]1(O)C[C@@H](Nc2nnc(-c3c(O)cc(C(F)(F)F)cc3F)c3cnccc23)C1` [Compound 34], the EC50 turned out to be 27 nM.

In the case of `CN1CCC[C@@H](Nc2nnc(-c3c(O)cc(C(F)(F)F)cc3F)c3c2COC3)C1` [Compound 35], the EC50 is 1.4 nM.

As to `Cc1cc(N[C@H]2C[C@@](C)(O)C2)nnc1-c1cc(F)c2c(c1O)CCC2` [Compound 37], the EC50 was found to be 60 nM.

`C[C@]1(O)C[C@@H](Nc2nnc(-c3ccc4c(c3O)CCC4)c3cccnc23)C1` [Compound 38]: the EC50 was 3 nM.

As for `C[C@]1(O)C[C@@H](Nc2nnc(-c3ccc4c(c3O)CCC4)c3ccncc23)C1` [Compound 39], the EC50 worked out at 1 nM.

With `C[C@]1(O)C[C@@H](Nc2nnc(-c3ccc4c(c3O)CCC4)c3cnccc23)C1` [Compound 40], the EC50 stood at 1.1 nM.

Take `C[C@]1(O)C[C@@H](Nc2nnc(-c3ccc(C4CC4)cc3O)c3ccncc23)C1` [Compound 41]: the EC50 stood at 27 nM.

As to `C[C@]1(O)C[C@@H](Nc2nnc(-c3ccc(C(F)(F)F)cc3O)c3c2COCC3)C1` [Compound 42], the EC50 was 20 nM.

For the molecule `C[C@]1(O)C[C@@H](Nc2nnc(-c3ccc(C(F)(F)F)cc3O)c3c2CCOC3)C1` [Compound 43], the EC50 turned out to be 20 nM.

In the case of `C[C@]1(O)C[C@@H](Nc2nnc(-c3c(O)cc(C(F)(F)F)cc3F)c3ccccc23)C1` [Compound 44], the EC50 is 24 nM.

For `Cc1cc(C(F)(F)F)cc(O)c1-c1nnc(N[C@H]2C[C@@](C)(O)C2)c2cnccc12` [Compound 45], the EC50 was found to be 4.9 nM.

As to `Cc1cc(C(F)(F)F)cc(O)c1-c1nnc(N[C@H]2C[C@@](C)(O)C2)c2ccccc12` [Compound 46], the EC50 was determined as 10.1 nM.

On to `Cc1cc(C(F)(F)F)cc(O)c1-c1nnc(N[C@@H]2CCCN(C)C2)c2c1COC2` [Compound 47], for which the EC50 came to 32.2 nM.

Source of the values: US20240391895A1, “PYRIDAZINE-CONTAINING COMPOUND AND MEDICINAL USE THEREOF” (Tuojie Biotech (Shanghai) Co., Ltd., priority 2020, published 2024).
